Test results as given in US6165998A, “Antifungal agents” (Scriptgen Pharmaceuticals, Inc., priority 1998, dated 2000).
Values after ≈ are worked out from the molar mass of the structure shown. Like-named read-outs stand apart in the source and are kept apart here.

Tests used:
human Pol II = biological target: T1, human Pol II (Homo sapiens, UniProt P24928+P30876); test: RNA polymerase II counterscreen, human pol II; assay type: biochemical
T1 construct: Pol II was isolated from Aspergillus nidulans, Saccharomyces cerevisiae, and human cells; endogenous in cells; enzyme isolated from them
Experimental: Pol II was isolated from Aspergillus nidulans, Saccharomyces cerevisiae, and human cells (FIG. 5) and used in secondary screens for fungal spectrum and specificity. Pol I and Pol III were isolated from Candida albicans and used as an additional mechanism to study specificity. Confirmed hits form the primary assay and were evaluated against this panel of polymerases. Agents with activity against Pol II from multiple fungal enzymes but not against the human counterpart were evaluated in vitro against fungal pathogens.

[1] = biological target: T2, C. albicans RNA polymerase II (Candida albicans, UniProt A0A1D8PUA6+Q5A8Y5); test: biochemical; conditions: for IC50: read-out: IC50 Candida pol II; for inhibition at 20 µM: screening of azo library
T2 construct: RNA elongation assay on calf thymus DNA
T2 sequence (A0A1D8PUA6 1-1728): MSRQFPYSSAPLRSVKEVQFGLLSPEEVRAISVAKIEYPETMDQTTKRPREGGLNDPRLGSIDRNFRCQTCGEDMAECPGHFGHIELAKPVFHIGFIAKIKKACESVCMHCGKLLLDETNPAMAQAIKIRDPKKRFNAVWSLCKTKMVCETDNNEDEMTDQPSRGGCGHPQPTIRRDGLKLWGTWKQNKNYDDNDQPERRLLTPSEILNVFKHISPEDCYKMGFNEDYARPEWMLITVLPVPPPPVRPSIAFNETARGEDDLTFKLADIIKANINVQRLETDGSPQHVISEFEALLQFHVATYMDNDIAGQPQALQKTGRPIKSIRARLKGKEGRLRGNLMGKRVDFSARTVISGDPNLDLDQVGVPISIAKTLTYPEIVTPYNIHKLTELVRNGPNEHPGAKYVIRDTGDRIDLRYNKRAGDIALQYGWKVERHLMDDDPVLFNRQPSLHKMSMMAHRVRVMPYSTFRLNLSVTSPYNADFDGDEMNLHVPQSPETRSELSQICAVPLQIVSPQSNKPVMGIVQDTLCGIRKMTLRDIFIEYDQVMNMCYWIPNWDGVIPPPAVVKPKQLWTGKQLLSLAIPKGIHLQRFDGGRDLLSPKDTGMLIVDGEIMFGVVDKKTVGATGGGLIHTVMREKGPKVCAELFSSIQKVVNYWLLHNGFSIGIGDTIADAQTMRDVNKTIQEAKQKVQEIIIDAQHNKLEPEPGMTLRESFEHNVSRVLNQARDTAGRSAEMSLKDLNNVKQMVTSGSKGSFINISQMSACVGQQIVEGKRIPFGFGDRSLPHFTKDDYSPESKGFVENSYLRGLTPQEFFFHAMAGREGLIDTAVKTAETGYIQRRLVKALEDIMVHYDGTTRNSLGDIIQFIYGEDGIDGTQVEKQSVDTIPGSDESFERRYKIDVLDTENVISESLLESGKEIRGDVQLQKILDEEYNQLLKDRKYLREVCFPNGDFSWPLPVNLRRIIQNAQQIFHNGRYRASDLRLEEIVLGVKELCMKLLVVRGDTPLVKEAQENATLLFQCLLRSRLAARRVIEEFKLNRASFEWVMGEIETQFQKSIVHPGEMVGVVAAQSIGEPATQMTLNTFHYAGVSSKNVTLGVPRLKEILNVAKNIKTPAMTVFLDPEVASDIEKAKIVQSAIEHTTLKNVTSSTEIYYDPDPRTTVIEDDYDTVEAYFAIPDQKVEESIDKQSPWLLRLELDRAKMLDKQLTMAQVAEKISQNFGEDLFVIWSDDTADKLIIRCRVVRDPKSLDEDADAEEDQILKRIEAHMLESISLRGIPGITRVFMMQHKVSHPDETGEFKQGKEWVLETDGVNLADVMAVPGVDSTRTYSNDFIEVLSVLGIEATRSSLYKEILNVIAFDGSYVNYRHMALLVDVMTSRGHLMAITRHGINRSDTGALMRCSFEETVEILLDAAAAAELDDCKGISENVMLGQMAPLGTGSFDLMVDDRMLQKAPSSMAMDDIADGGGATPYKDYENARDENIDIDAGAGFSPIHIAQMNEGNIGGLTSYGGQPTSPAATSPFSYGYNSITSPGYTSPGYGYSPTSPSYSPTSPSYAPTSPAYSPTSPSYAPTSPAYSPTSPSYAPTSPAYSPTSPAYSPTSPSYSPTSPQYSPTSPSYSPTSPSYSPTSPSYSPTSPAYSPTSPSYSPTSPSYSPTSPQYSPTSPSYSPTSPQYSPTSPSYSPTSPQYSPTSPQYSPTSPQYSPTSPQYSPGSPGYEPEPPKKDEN
T2 sequence (Q5A8Y5 1-1234): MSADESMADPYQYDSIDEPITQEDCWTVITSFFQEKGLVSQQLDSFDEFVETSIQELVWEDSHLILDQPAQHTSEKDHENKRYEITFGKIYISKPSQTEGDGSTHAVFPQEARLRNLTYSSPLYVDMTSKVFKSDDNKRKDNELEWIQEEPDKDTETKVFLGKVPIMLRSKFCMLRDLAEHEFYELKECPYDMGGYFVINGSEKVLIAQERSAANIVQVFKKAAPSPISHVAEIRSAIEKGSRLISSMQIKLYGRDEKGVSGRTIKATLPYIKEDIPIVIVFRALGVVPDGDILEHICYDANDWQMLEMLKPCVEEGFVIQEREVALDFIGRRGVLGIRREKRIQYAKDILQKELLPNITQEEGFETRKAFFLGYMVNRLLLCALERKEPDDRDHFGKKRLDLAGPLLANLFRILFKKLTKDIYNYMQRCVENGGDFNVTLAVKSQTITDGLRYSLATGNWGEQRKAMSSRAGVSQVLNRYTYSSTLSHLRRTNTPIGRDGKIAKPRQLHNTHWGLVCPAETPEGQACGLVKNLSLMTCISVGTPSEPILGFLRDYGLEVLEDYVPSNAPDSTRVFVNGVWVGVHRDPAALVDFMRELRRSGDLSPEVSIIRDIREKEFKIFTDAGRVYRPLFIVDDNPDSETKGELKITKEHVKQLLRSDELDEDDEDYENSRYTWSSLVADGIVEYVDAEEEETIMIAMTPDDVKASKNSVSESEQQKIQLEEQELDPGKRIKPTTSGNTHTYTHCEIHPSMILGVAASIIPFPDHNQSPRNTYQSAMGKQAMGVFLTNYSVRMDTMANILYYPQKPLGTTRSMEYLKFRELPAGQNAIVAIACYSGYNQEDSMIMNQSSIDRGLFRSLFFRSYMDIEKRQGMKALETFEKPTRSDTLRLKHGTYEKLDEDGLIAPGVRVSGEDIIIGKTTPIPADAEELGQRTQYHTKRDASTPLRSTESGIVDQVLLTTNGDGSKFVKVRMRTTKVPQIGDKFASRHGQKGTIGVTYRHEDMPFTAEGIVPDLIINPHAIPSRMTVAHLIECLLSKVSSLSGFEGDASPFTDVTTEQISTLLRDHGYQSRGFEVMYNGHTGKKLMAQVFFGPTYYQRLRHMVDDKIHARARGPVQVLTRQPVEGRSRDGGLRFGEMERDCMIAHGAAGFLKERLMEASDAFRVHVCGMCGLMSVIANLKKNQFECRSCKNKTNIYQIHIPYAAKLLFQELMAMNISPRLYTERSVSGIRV
Experimental: (§1) The following procedure is used for cell-free high-throughput screening. A Tomtec Quadra 96-well pipetting station is used to add the reaction components to polypropylene 96-well dishes. 5 μl aliquots of test compounds dissolved in DMSO (or DMSO alone as a control) are added to wells. This is followed by 20 μl of the RNA polymerase II mixture, which consists of: 10 mM DTT, 200 mM KCl, 10 mM Mn^+2, 1.5 μM bovine serum albumin, and 0.25 μg reconstituted RNA polymerase. After allowing the test compound to interact with the RNA polymerase, 25 μl of the DNA/NTP mixture is added, containing: 1 μg calf thymus DNA, 4 μM [α-^32 P]-UTP, and 400 μM each CTP, ATP, and GTP.
(§2) After incubation for 60 min at 30 C, the reaction is stopped by addition of 50 μl 15% trichloroacetic acid (TCA). The TCA-precipitated RNA is adsorbed onto double-thick glass fiber filtermats using a Tomtec cell harvester. The wells of the microtiter plate and the filter are washed twice with 5% TCA and bound radioactivity is determined using a Wallac microbeta 1450 scintillation counter.
(§3) Inhibitory activity due to the test compound is calculated according to the formula: [formula] where cpmpositive control represents the average of the cpm in wells that received DMSO alone, and cpmsample represents the cpm in the well that received test compound. Compounds that cause at least 50% inhibition are scored as positive "hits" in this assay.
(§4) DNA-directed RNA polymerase II from Candida albicans was purified in sufficient quantity to support high throughput screening of large synthetic chemical and natural product libraries. A biochemical mechanism-based screen for detecting inhibitors of Pol II was developed and implemented. The screen is outlined in FIGS. 4A and 4B.

fungal pathogens = test: In vitro antifungal activity (MIC); assay type: cell-based
[2] = tested on: C. albicans RNA polymerase II; test: biochemical
Experimental: as §1, §2, §3, §4

[3] = tested on: C. albicans resistant to fluconazole; test: Systemic candidiasis caused by fluconazole-resistant C. albicans; conditions: mouse, in vivo
Experimental: (§5) In addition, Compound 1 was efficacious in a murine model for systemic candidiasis (FIG. 10). It prolonged mean and median survival times of treated mice in the dosage range of 5 mg/kg/d to 100 mg/kg/d on aq.d., d2-11 schedule. […] The efficacy of Compound 1 was confirmed in a separate experiment using amphotericin as a control (FIG. 11). Compound 1 was also efficacious when administered orally to mice with an established systemic Candida infection (FIG. 12). […] Compound 1 is also effective against systemic candidiasis caused by a strain of C. albicans resistant to fluconazole (FIG. 13). Additional animal testing will include acute toxicity determination, route and schedule dependency in standard efficacy models, efficacy testing in immunosuppressed Candida infected mice, efficacy in an Aspergillus infection model, and pharmacokinetics following IV and oral dosing.
(§6) Compound 6 was evaluated for antifungal efficacy in a systemic candidiasis model in immunocompetent mice (FIG. 18). The compound was administered IP on a q.d., d2-11 schedule. […] 90% long term survival was seen formice treated with Compound 6 at 200/mg/kg. 30% of mice survived when treated with Compound 6 at 100 mg/kg/d. Compound 6 was also effective against systemic candidiasis when administered orally (FIG. 19) and it was effective in treating infections caused by fluconazole-resistant C. albicans.

[4] = Compound-related toxicity in treated mice; assay type: in vivo, mouse; conditions: IP, q.d., d2-11, any of the treatment groups, immunocompetent mice
Experimental: as §5, §6

[5] = tested on: systemic Candida infection; test: Murine model for systemic candidiasis; assay type: in vivo, mouse
Experimental: as §5, §6

C. albicans = test: Time course of fungicidal activity, C. albicans; assay type: cell-based, Candida albicans; conditions: C. albicans cells
Description: (§7) Compound 1 is rapidly fungicidal.

S. cerevisiae = test: Time course of fungicidal activity, S. cerevisiae; assay type: cell-based, Saccharomyces cerevisiae; conditions: S. cerevisiae cells
Description: as §7

[6] = Table 2, read-out: IC50 Human pol II
[7] = Table 1, read-out: IC50 Human pol II
[8] = listed as stilbene isostere of Compound 1
[9] = 1.5 μg/ml, similar time (45 minutes)

inhibition at 20 µM [1] [%]	Compound	IC50 (human Pol II; [6]) [µM]	IC50 ([1]; Table 2) [µM]	other results
	4-[-2-[3-(trifluoromethyl)phenyl]diazenyl]-2-hydroxy-phenol [Compound 4]	230	70	
	Oc1ccc(CCc2cccc(C(F)(F)F)c2)cc1 [CH2 CH2]			IC50 (human Pol II; [7]): > 2000 µM; IC50 ([1]; Table 1): 230 µM
	O=C(Nc1ccc(O)cc1)c1cccc(C(F)(F)F)c1 [CONH]			IC50 (human Pol II; [7]): 500 µM; IC50 ([1]; Table 1): 51 µM
	COc1ccc(N=Nc2cccc(C(F)(F)F)c2)cc1 [Compound 3, 4-[-2-[3-(trifluoromethyl)phenyl]diazenyl]-anisole]	> 2000	> 2000	
	Cc1cccc(N=Nc2ccc(O)cc2)c1 [Compound 5, 4-[-2-[3-(methyl)phenyl]diazenyl]-phenol]	340	90	
	Oc1ccc(C=Cc2cccc(C(F)(F)F)c2)cc1 [Compound 6, 4-[-2-[3-(trifluoromethyl)phenyl]ethenyl]phenol]			in vitro antifungal activity / spectrum (fungal pathogens): broadly active against fungi; MIC (fungal pathogens; Table 1, antifungal activity, read-out: MIC): 8.2 µg/mL (≈ 31 µM); in vitro antifungal activity / spectrum (fungal pathogens; [8]): had antifungal activity; IC50 (human Pol II): 230 µM; IC50 ([1]; Table 1): 70 µM; selectivity for Candida/fungal Pol II relative to human Pol II [2]: selective; selectivity for Candida/fungal Pol II relative to human Pol II [2, 8]: retained selective activity; efficacy against systemic candidiasis caused by fluconazole-resistant C. albicans [3]: effective; compound-related toxicity [4]: no evidence of compound-related toxicity; mice survived ([5]; IP q.d. d2-11, 100 mg/kg/d, immunocompetent mice): 30%; long term survival ([5]; IP q.d. d2-11, 200/mg/kg, immunocompetent mice): 90%; efficacy against systemic candidiasis when administered orally ([5]; oral): effective
	O=[N+]([O-])c1cc(C(F)(F)F)ccc1N=Nc1ccc(O)cc1 [Compound 7]	300	190	
	O=[N+]([O-])c1cc(N=Nc2cccc(C(F)(F)F)c2)ccc1O [Compound 8, 4-[-2-[3-(trifluoromethyl)phenyl]diazenyl]-2-nitrophenol]	> 2000	103	
	O=C(O)c1cc(N=Nc2cccc(C(F)(F)F)c2)ccc1O [Compound 9, 5-[-2-[3-(trifluoromethyl)phenyl]diazenyl]-2-hydroxy-benzoic acid]	148	193	
	O=Cc1cc(/N=N/c2cccc(C(F)(F)F)c2)ccc1O [Compound 10, 5-[(E)-2-[3-(trifluoromethyl)phenyl]diazenyl]-2-hydroxy-benzaldehyde]	82	34	
50	Oc1ccc(N=Nc2cccc(Cl)c2)cc1 [Compound 11, 4-[-2-[3-(chloro)phenyl]diazenyl]phenol]			
45	O=[N+]([O-])c1cccc(N=Nc2ccc(O)cc2)c1 [Compound 12, 4-[-2-[3-(nitro)phenyl]diazenyl]phenol]			
38	Oc1ccc(N=Nc2cccc(C(F)(F)F)c2F)cc1 [Compound 13, 4-[-2-[2-fluoro-3-(trifluoromethyl)phenyl]diazenyl]phenol]			
42	Oc1ccc(N=Nc2ccc(F)c(C(F)(F)F)c2)cc1 [Compound 14]			
39	Oc1ccc(N=Nc2cc(C(F)(F)F)ccc2F)cc1 [Compound 15, 4-[-2-[6-fluoro-3-(trifluoromethyl)phenyl]diazenyl]phenol]			
28	Oc1ccc(N=Nc2cc(C(F)(F)F)cc(C(F)(F)F)c2)cc1 [Compound 16, 4-[-2-[3,5-(di-trifluoromethyl)phenyl]diazenyl]phenol]			

inhibition at 20 µM [1] [%]	Compound	IC50 (human Pol II; [6]) [µM]	IC50 ([1]; Table 2) [µM]	other results
53	COc1cc(N=Nc2ccc(O)cc2)cc(C(F)(F)F)c1 [Compound 17]			
37	N#Cc1cc(N=Nc2cccc(C(F)(F)F)c2)ccc1O [Compound 18, 4-[-2-[3-(trifluoromethyl)phenyl]diazenyl]-2-cyano-phenol]			
33	OCc1cc(N=Nc2cccc(C(F)(F)F)c2)ccc1O [Compound 19, 4-[-2-[3-(tnfluoromethyl)phenyl]diazenyl]-2-(hydroxymethyl)-phenol]			
28	N#Cc1cc(O)ccc1N=Nc1cccc(C(F)(F)F)c1 [Compound 20, 4-[-2-[3-(trifluoromethyl)phenyl]diazenyl]-3-cyano-phenol]			
39	OCc1cc(O)ccc1N=Nc1cccc(C(F)(F)F)c1 [Compound 21, 4-[-2-[3-(trifluoromethyl)phenyl]diazenyl]-3-(hydroxymethyl)-phenol]			
42	Cc1cc(O)ccc1N=Nc1cccc(C(F)(F)F)c1 [Compound 22, 4[-2-[3-(trifluoromethyl)phenyl]diazenyl]-3-methyl-phenol]			
37	O=[N+]([O-])c1cc(O)ccc1N=Nc1cccc(C(F)(F)F)c1 [Compound 23, 4-[-2-[3-(trifluoromethyl]phenyl)diazenyl]-3-nitro-phenol]			
	COc1ccc(C=Cc2cccc(C(F)(F)F)c2)cc1 [Compound 24, 4-[-2-[3-(trifluoromethyl)-phenyl]ethenyl]-anisole]	> 2000	> 2000	
	COCOc1ccc(C=Cc2cccc(C(F)(F)F)c2)cc1 [Compound 25, 4-[-2-[3-(trifluorometbyl)phenyl]ethenyl]-methoxymethoxyl phenyl]	> 2000	> 2000	
	Oc1ccc(C=Cc2cccc(C(F)(F)F)c2)cc1Br [Compound 26, 4-[-2-[3-(trifluoromethyl)phenyl]ethenyl]-2-bromo-phenol]	84	42	
	OB(O)c1cc(C=Cc2cccc(C(F)(F)F)c2)ccc1O [Compound 27]	136	58	
	O=C(Nc1cccc(C(F)(F)F)c1)c1ccc(OCc2ccccc2)cc1 [Compound 29, 4-benzoxy-N-[3-(trifluoromethyl)phenyl]benzamide]	> 2000	> 2000	
	O=C(Nc1cccc(C(F)(F)F)c1)c1ccc(O)cc1 [Compound 30, 4-hydroxy-N-[3-(trifnuoromethyl)phenyl]benzamide]			IC50 (human Pol II; [7]): 82 µM; IC50 ([1]; Table 1): 27 µM
	O=C(O)CN(CCN(CC(=O)O)CC(=O)O)CC(=O)O [EDTA, reference compound]			inhibition at 10 µM ([1]; 1 h, read-out: inhibition of transcription): ≥ 90%
	C[C@@H]1[C@H](O)[C@@H](C)/C=C/C=C/C=C/C=C/C=C/C=C/C=C/[C@H](O[C@@H]2O[C@H](C)[C@@H](O)[C@H](N)[C@@H]2O)C[C@@H]2O[C@](O)(C[C@@H](O)C[C@@H](O)[C@H](O)CC[C@@H](O)C[C@@H](O)CC(=O)O[C@H]1C)C[C@H](O)[C@H]2C(=O)O [amphotericin B, reference compound]			exposure time after which no CFUs are recoverable (C. albicans): ~30 min; colony forming units after exposure (C. albicans; [9]): no colony forming units are detected; exposure time after which no CFUs are recoverable (S. cerevisiae): ~30 min; colony forming units after exposure (S. cerevisiae; [9]): no colony forming units are detected
	OC(Cn1cncn1)(Cn1cncn1)c1ccc(F)cc1F [fluconazole, reference compound]			recoverable colonies from the kidneys of treated animals ([5]; systemic candidiasis, mice): reduced
